Assay results as given in ChEMBL document CHEMBL4311944, “Discovery of 3-Oxabicyclo[4.1.0]heptane, a Non-nitrogen Containing Morpholine Isostere, and Its Application in Novel Inhibitors of the PI3K-AKT-mTOR Pathway” (J Med Chem, 2019).
In brackets after ≈: the same amount, converted by molar mass.

How the values were obtained:
[1] = Inhibition of ligand binding to mTORC1/mTORC2 in human HuT78 cells after 2 hrs by kinobead competition binding assay; assay type: cell-based
[2] = target: Phosphatidylinositol 4,5-bisphosphate 3-kinase catalytic subunit alpha isoform (Homo sapiens, UniProt P42336)
Description: Inhibition of PI3Kalpha (unknown origin) using PIP2 as substrate preincubated for 15 mins followed by substrate addition and measured after 1 hr by HTRF assay

[3] = target: T1, Phosphatidylinositol 4,5-bisphosphate 3-kinase catalytic subunit delta isoform (Homo sapiens, UniProt O00329); experiment: Inhibition of PI3Kdelta (unknown origin) using PIP2 as substrate preincubated for 15 mins followed by substrate addition and measured after 1 hr by HTRF assay
T1 sequence (O00329 whole entry): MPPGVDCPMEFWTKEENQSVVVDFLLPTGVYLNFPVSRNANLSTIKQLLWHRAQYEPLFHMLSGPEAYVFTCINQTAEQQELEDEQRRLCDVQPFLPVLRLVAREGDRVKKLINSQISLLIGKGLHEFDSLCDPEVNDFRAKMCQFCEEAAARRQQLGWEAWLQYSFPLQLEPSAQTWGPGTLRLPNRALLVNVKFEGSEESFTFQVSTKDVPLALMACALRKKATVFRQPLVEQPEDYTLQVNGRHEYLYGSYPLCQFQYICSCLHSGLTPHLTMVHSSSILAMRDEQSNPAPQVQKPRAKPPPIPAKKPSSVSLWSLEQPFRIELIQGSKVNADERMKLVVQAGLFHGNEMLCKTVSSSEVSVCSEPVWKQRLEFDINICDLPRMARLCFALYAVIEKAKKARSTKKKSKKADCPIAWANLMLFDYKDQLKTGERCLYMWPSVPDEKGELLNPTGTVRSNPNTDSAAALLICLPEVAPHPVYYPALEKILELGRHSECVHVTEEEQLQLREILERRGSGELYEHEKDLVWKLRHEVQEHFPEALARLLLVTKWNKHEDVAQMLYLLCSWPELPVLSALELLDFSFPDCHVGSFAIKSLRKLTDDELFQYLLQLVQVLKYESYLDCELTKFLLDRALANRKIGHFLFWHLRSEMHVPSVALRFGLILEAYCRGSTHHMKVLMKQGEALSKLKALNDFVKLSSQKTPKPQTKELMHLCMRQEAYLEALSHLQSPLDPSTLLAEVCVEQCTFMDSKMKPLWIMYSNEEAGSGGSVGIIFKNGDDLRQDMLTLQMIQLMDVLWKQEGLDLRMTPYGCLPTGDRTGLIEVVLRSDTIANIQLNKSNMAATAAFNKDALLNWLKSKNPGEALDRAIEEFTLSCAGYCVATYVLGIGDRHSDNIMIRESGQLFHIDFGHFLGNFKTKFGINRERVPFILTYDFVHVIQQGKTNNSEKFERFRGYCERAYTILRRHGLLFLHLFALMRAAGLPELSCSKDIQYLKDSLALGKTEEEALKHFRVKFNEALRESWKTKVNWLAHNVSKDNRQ

[4] = Lipophilicity, logP of the compound by reversed phase column chromatography; assay type: physicochemical
[5] = Inhibition of PI3K/AKT/mTOR in human lung fibroblasts assessed as reduction in AKT phosphorylation at serine473 residue preincubated for 1 hr followed by PDGF-BB stimulation and measured after 10 mins by electrochemiluminescence method
[6] = Kinetic solubility of the compound in pH 7.4 phosphate buffered saline measured after 1 hr; assay type: physicochemical; conditions: read-out: Kinetic_solubility

Sequence of Phosphatidylinositol 4,5-bisphosphate 3-kinase catalytic subunit alpha isoform (P42336 whole entry, canonical isoform): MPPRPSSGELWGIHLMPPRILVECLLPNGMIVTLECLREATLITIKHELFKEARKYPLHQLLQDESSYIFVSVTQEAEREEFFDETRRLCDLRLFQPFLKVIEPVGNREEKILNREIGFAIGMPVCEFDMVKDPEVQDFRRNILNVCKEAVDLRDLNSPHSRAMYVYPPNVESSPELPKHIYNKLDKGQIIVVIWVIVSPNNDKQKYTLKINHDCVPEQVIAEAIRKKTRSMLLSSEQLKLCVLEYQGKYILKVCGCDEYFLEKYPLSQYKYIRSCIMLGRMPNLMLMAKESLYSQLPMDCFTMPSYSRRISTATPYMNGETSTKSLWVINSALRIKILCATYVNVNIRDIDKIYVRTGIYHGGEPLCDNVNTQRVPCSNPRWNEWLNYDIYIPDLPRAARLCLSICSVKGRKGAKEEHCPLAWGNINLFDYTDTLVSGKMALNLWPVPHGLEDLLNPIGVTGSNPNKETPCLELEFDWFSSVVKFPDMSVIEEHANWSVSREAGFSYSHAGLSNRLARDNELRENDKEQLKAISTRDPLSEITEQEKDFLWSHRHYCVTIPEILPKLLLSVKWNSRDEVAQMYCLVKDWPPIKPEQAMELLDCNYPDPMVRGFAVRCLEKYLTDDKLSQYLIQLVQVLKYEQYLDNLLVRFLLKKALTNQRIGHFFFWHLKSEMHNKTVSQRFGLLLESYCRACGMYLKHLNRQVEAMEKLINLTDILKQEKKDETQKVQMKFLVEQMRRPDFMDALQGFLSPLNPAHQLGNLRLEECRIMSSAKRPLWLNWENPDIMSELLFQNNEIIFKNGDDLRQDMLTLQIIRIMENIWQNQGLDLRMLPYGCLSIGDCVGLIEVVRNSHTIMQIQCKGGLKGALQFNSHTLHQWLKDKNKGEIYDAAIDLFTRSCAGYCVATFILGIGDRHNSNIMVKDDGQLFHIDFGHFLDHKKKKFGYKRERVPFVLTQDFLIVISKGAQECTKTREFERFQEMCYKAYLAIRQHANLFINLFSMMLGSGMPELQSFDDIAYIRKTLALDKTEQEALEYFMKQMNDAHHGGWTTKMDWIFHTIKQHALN

Row | pIC50 [1] | IC50 [2] | IC50 [3] | logP [4] | solubility kinetic at 1 h [6] | Compound | IC50 [5]
1 | 7.1 | 15.8 µM | 20 µM | 3.2 | 212 µg/mL (≈ 489 µM) | CCNC(=O)Nc1ccc(-c2nc(CS(C)(=O)=O)cc(N3CCOC[C@@H]3C)n2)cc1 | 0.316 µM
2 | 7.3 | – | – | 2.7 | – | CCNC(=O)Nc1ccc(-c2nc(CS(C)(=O)=O)cc(N3CCOCC3)n2)cc1 | 1.26 µM
3 | 8 | 15.8 µM | 1.58 µM | 4.1 | 198 µg/mL (≈ 429 µM) | CNCC(=O)Nc1ccc(-c2nc(N3CCOC[C@@H]3C)cc(C(C)(C)S(C)(=O)=O)n2)cc1 | 0.0501 µM
4 | 6.7 | 1 µM | 1 µM | 3.3 | 113 µg/mL (≈ 311 µM) | C[C@H]1COCCN1c1cc(CS(C)(=O)=O)nc(-c2cccc(O)c2)n1 | 2.51 µM
5 | 7.3 | 25.1 µM | 1.26 µM | 4.3 | 257 µg/mL (≈ 560 µM) | CNCC(=O)Nc1ccc(-c2nc(C(C)(C)S(C)(=O)=O)cc([C@@]34CCOC[C@@H]3C4)n2)cc1 | 0.158 µM
6 | 7.7 | 25.1 µM | 12.6 µM | 2.6 | 90 µg/mL (≈ 208 µM) | CNCC(=O)Nc1ccc(-c2nc(CS(C)(=O)=O)cc(N3CCOC[C@@H]3C)n2)cc1 | 0.501 µM
7 | 5.7 | 1.58 µM | 1 µM | 3.3 | 119 µg/mL (≈ 439 µM) | C[C@H]1COCCN1c1ccnc(-c2cccc(O)c2)n1 | 3.98 µM
8 | 5.9 | 7.94 µM | 3.98 µM | 3.7 | 145 µg/mL (≈ 402 µM) | CS(=O)(=O)Cc1cc([C@@]23CCOC[C@@H]2C3)nc(-c2cccc(O)c2)n1 | 5.01 µM
9 | 4.5 | 15.8 µM | 7.94 µM | 3.3 | 100 µg/mL (≈ 390 µM) | Oc1cccc(-c2nccc(C3CCOCC3)n2)c1 | 20 µM
10 | 5.5 | 15.8 µM | 10 µM | 4.8 | 135 µg/mL (≈ 348 µM) | CC(C)(c1cc([C@]23CCOC[C@H]2C3)nc(-c2cccc(O)c2)n1)S(C)(=O)=O | 1.26 µM
11 | 7 | > 31.6 µM | 7.94 µM | 3.6 | 96 µg/mL (≈ 223 µM) | CCNC(=O)Nc1ccc(-c2nc(CS(C)(=O)=O)cc([C@]34CCOC[C@H]3C4)n2)cc1 | 0.501 µM
12 | 5.8 | 12.6 µM | 5.01 µM | 4 | 111 µg/mL (≈ 328 µM) | CCNC(=O)Nc1ccc(-c2nccc(C34CCOCC3C4)n2)cc1 (stereo not drawn) | 3.16 µM
13 | < 5.4 | 10 µM | 7.94 µM | 4.8 | 148 µg/mL (≈ 381 µM) | CC(C)(c1cc([C@@]23CCOC[C@@H]2C3)nc(-c2cccc(O)c2)n1)S(C)(=O)=O | 5.01 µM
14 | 6.9 | > 31.6 µM | 25.1 µM | 4.7 | 74 µg/mL (≈ 161 µM) | CCNC(=O)Nc1ccc(-c2nc(C(C)(C)S(C)(=O)=O)cc([C@]34CCOC[C@H]3C4)n2)cc1 | 0.0631 µM
15 | 6.5 | 12.6 µM | 10 µM | 2.7 | 109 µg/mL (≈ 333 µM) | CCNC(=O)Nc1ccc(-c2nccc(N3CCOCC3)n2)cc1 | 3.98 µM
16 | 6.1 | > 31.6 µM | 25.1 µM | 3.6 | 77 µg/mL (≈ 179 µM) | CCNC(=O)Nc1ccc(-c2nc(CS(C)(=O)=O)cc([C@@]34CCOC[C@@H]3C4)n2)cc1 | 1.58 µM

Row | pIC50 [1] | IC50 [2] | IC50 [3] | logP [4] | solubility kinetic at 1 h [6] | Compound | IC50 [5]
17 | 5.7 | 3.16 µM | 3.16 µM | 4.4 | 121 µg/mL (≈ 309 µM) | C[C@H]1COCCN1c1cc(C(C)(C)S(C)(=O)=O)nc(-c2cccc(O)c2)n1 | 1.26 µM
18 | 4.8 | 6.31 µM | 3.98 µM | 4.1 | 102 µg/mL (≈ 380 µM) | Oc1cccc(-c2nccc(C34CCOCC3C4)n2)c1 (stereo not drawn) | 7.94 µM
19 | 5.9 | 0.501 µM | 0.251 µM | 2.7 | 107 µg/mL (≈ 416 µM) | Oc1cccc(-c2nccc(N3CCOCC3)n2)c1 | 2 µM
20 | 6.6 | 25.1 µM | 15.8 µM | 4.7 | 78 µg/mL (≈ 170 µM) | CCNC(=O)Nc1ccc(-c2nc(C(C)(C)S(C)(=O)=O)cc([C@@]34CCOC[C@@H]3C4)n2)cc1 | 0.158 µM
21 | 6 | 20 µM | 15.8 µM | 3.6 | 24 µg/mL (≈ 74 µM) | CCNC(=O)Nc1ccc(-c2nccc(C3=CCOCC3)n2)cc1 | 3.98 µM
22 | 5.7 | 3.16 µM | 1.26 µM | 3.6 | 113 µg/mL (≈ 444 µM) | Oc1cccc(-c2nccc(C3=CCOCC3)n2)c1 | 3.16 µM
23 | 5.1 | 2.51 µM | 1.26 µM | 4 | 141 µg/mL (≈ 525 µM) | Oc1cccc(-c2nccc([C@]34CCOC[C@H]3C4)n2)c1 | 7.94 µM
24 | < 3 | 6.31 µM | 3.16 µM | 4 | 123 µg/mL (≈ 458 µM) | Oc1cccc(-c2nccc([C@@]34CCOC[C@@H]3C4)n2)c1 | 10 µM
25 | 8.2 | 7.94 µM | 25.1 µM | 3.9 | 145 µg/mL (≈ 296 µM) | CC(C)(c1cc([C@@]23CCOC[C@@H]2C3)nc(-c2ccc(NC(=S)NCCO)cc2)n1)S(C)(=O)=O | 0.0794 µM
26 | 7.1 | > 31.6 µM | 15.8 µM | 3.1 | 167 µg/mL (≈ 388 µM) | CNCC(=O)Nc1ccc(-c2nc(CS(C)(=O)=O)cc([C@@]34CCOC[C@@H]3C4)n2)cc1 | 1.26 µM
27 | 7.4 | > 31.6 µM | > 31.6 µM | 3.1 | 158 µg/mL (≈ 367 µM) | CNCC(=O)Nc1ccc(-c2nc(CS(C)(=O)=O)cc([C@]34CCOC[C@H]3C4)n2)cc1 | 0.794 µM
28 | 7.3 | 7.94 µM | 7.94 µM | 4.4 | 130 µg/mL (≈ 282 µM) | CCNC(=O)Nc1ccc(-c2nc(N3CCOC[C@@H]3C)cc(C(C)(C)S(C)(=O)=O)n2)cc1 | 0.0501 µM
29 | 5.8 | 20 µM | 15.8 µM | 3.7 | 75 µg/mL (≈ 208 µM) | CS(=O)(=O)Cc1cc([C@]23CCOC[C@H]2C3)nc(-c2cccc(O)c2)n1 | 3.16 µM
30 | 6.4 | 6.31 µM | 1.58 µM | 3.3 | 27 µg/mL (≈ 77.9 µM) | CS(=O)(=O)Cc1cc(C2=CCOCC2)nc(-c2cccc(O)c2)n1 | 0.794 µM
31 | 7.6 | > 31.6 µM | 12.6 µM | 4.3 | 217 µg/mL (≈ 473 µM) | CNCC(=O)Nc1ccc(-c2nc(C(C)(C)S(C)(=O)=O)cc([C@]34CCOC[C@H]3C4)n2)cc1 | 0.1 µM
